This note sets out measurements from PMC12598616, “Design and optimization of caspase-1-responsive fluorescent probes for pyroptosis imaging and anti-pyroptosis drug screening” (Chemical Science, 2025).

The subject of the assay is Cas-1 in NP cell spheroids. Put plainly: Imaging in nucleus pulposus 3D cell spheroids. Type of assay: cell-based, rat. The settings on record: H2O2 2 mM 30, 60, 90 min; FPy1 5 μM; compared with 2D cells. An excerpt: With advancing age, the prevalence of degenerative bone and joint disorders (DBJDs), such as intervertebral disc degeneration (IVDD) and osteoarthritis (OA), increases markedly among middle-aged and elderly individuals.[30] Chronic inflammation has been identified as the underlying cause of DBJDs. In particular, inflammasome-mediated pyroptosis has been recognized as a primary contributor to sustained inflammatory responses.[31] Consequently, pyroptosis-associated biomarkers represent promising indicators for the diagnosis and monitoring of DBJDs. IVDD, a chronic degenerative condition closely related to natural aging, has become one of the leading causes of disability worldwide.[32] […] The imaging results indicated a positive correlation between fluorescence intensity and H2O2-stimulation time (Fig. 4b). […] Encouraged by the promising imaging results of FPy1 in NP cells and cell spheroids, we further assessed its capability for imaging pytoptosis in vivo. […] Following intradiscal injection of FPy1, the fluorescence images of the tail modeling site were obtained from the dorsal aspect. […] Histological scoring result corroborated these findings, reflecting the same trends as with fluorescence imaging observed using FPy1 (Fig. S13b). […]
The cytotoxicity of FPy1 and YPy1 to THP-1 was evaluated by cell counting kit-8 (CCK-8). […]

As for “–FLTDG– [FPy1, RhoB donor, hNR quencher]”, the “fluorescence enhancement in NP spheroids” value is listed as “the fluorescence enhancement in the spheroids was more pronounced”.
